Data taken from BigSolDB 2.1.

O=c1cc[nH]c(=O)[nH]1
solubility (mole fraction)
Details	283.15 K	288.15 K	293.15 K	298.15 K	303.15 K	308.15 K	313.15 K	318.15 K
in ethanol	7.7e-05	9.1e-05	0.000113	0.000135	0.000166	0.000212	0.000248	0.000296
in isopropanol	6.6e-05	7.6e-05	0.000105	0.00014	0.000169	0.000216	0.000245	0.000281
in methanol	0.000152	0.000166	0.000206	0.000253	0.000307	0.000362	0.000414	0.000519
in water	0.000166	0.000209	0.000264	0.000332	0.00042	0.000513	0.000613	0.000738
